According to patent US8859580B2 (Boehringer Ingelheim International GmbH, priority 2007, dated 2014):

Molecular target: T1, 11β-HSD1 (Homo sapiens, UniProt P28845)
T1 construct: detecting cortisol generated from cortisterone by human liver microsomes; from tissue; host or cells: human liver microsomes
Assay: In vitro inhibition of 11β-HSD1, HTRF detection of cortisol generated from cortisone by human liver microsomes
Format: biochemical
Conditions: 11β-HSD IC50 (nM), 1 hour at 37° C., pH 6.0, NADPH 200 μM, cortisone 80 nM, inhibition relative to carbenoxolone signal
Method in brief: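 Cortisol formed from cortisone by human liver microsomes quantified by competitive HTRF immunoassay (XL665-cortisol, Eu-cryptate anti-cortisol antibody), 2 h detection, Em665/Em615 ratio converted via cortisol calibration curve. Percent inhibition relative to carbenoxolone signal; IC50 from curves.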

T1 sequence (P28845 whole entry): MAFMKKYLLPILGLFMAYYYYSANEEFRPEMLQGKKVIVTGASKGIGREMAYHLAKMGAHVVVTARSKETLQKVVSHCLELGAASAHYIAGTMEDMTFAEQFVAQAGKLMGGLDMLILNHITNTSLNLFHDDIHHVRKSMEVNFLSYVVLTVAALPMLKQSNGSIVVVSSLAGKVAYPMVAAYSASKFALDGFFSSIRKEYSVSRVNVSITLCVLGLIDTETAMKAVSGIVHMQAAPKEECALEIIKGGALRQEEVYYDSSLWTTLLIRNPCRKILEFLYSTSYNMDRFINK

Row | Structure (SMILES) | IC50
1 | CC1(C)[C@H]2Cc3c(O)cccc3[C@]1(C)CCN2C(=O)c1ccc(CN2CCOCC2)cc1 [Example 24, [(2R,6S)-10-Hydroxy-6,11,11-trimethyl-1,2,5,6-tetrahydro-4H-2,6-methano-benzo[d]azocin-3-yl]-(4-morpholin-4-ylmethyl-phenyl)-methanone] | 134 nM
2 | Cc1ccc(-c2ccc3c(c2)[C@]2(C)CCN(C(=O)c4ccc5nc[nH]c5c4)[C@H](C3)[C@H]2C)nn1 [Example 263, (3H-Benzoimidazol-5-yl)-[(2R,6R,11S)-6,11-dimethyl-8-(6-methyl-pyridazin-3-yl)-1,2,5,6-tetrahydro-4H-2,6-methano-benzo[d]azocin-3-yl]-methanone] | 71 nM
3 | Cc1nc2cc3c(cc2o1)[C@]1(C)CCN(C(=O)c2ccc4nc[nH]c4c2)[C@H](C3)[C@H]1C [Example 305, (3H-Benzoimidazol-5-yl)-[(6R,10R,12S)-5,6,7,8,9,10-hexahydro-2,10,12-trimethyl-6,10-methano-oxazolo[5,4-i][3]benzazocin 7-yl]-methanone] | 153 nM
4 | CC1CN(Cc2ccc(C(=O)N3CC[C@@]4(C)c5cccc(O)c5C[C@@H]3C4(C)C)cc2)CC(C)O1 (stereo partly drawn) [Example 184, [4-(2,6-Dimethyl-morpholin-4-ylmethyl)-phenyl]-[(2R,6S)-10-hydroxy-6,11,11-trimethyl-1,2,5,6-tetrahydro-4H-2,6-methano-benzo[d]azocin-3-yl]-methanone] | 1150 nM
5 | CC1(C)[C@H]2Cc3c(O)cccc3[C@]1(C)CCN2C(=O)c1ccccc1 [Example 1, [(2R,6S)-10-Hydroxy-6,11,11-trimethyl-1,2,5,6-tetrahydro-4H-2,6-methano-benzo[d]azocin-3-yl]-phenyl-methanone] | 285 nM
6 | CC1(C)[C@H]2Cc3c(O)cccc3[C@]1(C)CCN2C(=O)c1ccc2c(c1)NCC(=O)N2 [Example 44, 6-[(2R,6S)-10-Hydroxy-6,11,11-trimethyl-1,2,5,6-tetrahydro-4H-2,6-methano-benzo[d]azocine-3-carbonyl]-3,4-dihydro-1H-quinoxalin-2-one] | 200 nM
7 | CC12CCN(C(=O)c3ccc4[nH]cnc4c3)C(Cc3cc(/C(N)=N/O)ccc31)C2(C)C (centres unmarked) [Example 175, 3-(1H-Benzoimidazole-5-carbonyl)-N-hydroxy-6,11,11-trimethyl-1,2,3,4,5,6-hexahydro-2,6-methano-benzo[d]azocine-9-carboxamidine] | 344 nM
8 | CC1(C)[C@H]2Cc3c(O)cccc3[C@]1(C)CCN2C(=O)c1ccc(N2CCOCC2)cc1 [Example 25, [(2R,6S)-10-Hydroxy-6,11,11-trimethyl-1,2,5,6-tetrahydro-4H-2,6-methano-benzo[d]azocin-3-yl]-(4-morpholin-4-yl-phenyl)-methanone] | 686 nM
9 | CC12CCN(C(=O)c3ccc4nc[nH]c4c3)C(Cc3cccc(O)c31)C2(C)C (centres unmarked) [Example 78, (3H-Benzoimidazol-5-yl)-(7-hydroxy-6,11,11-trimethyl-1,2,5,6-tetrahydro-4H-2,6-methano-benzo[d]azocin-3-yl)-methanone] | 67 nM
10 | C[C@H]1[C@H]2Cc3ccc(O)cc3[C@]1(C)CCN2C(=O)c1ccc2nc[nH]c2c1 [Example 247, (3H-Benzoimidazol-5-yl)-[(2R,6R,11R)-8-hydroxy-6,11-dimethyl-1,2,5,6-tetrahydro-4H-2,6-methano-benzo[d]azocin-3-yl)-methanone] | 190 nM
11 | CC1(C)[C@H]2Cc3ccccc3[C@]1(C)CCN2C(=O)c1ccc2c(c1)C(O)CC2 (stereo partly drawn) [Example 291, (3-Hydroxy-indan-5-yl)-[(2R,6S)-6,11,11-trimethyl-1,2,5,6-tetrahydro-4H-2,6-methano-benzo[d]azocin-3-yl]-methanone] | 183 nM
12 | CC1(C)[C@H]2Cc3ccccc3[C@]1(C)CCN2C(=O)c1ccc2nc[nH]c2c1 (racemic) [Example 82, (3H-Benzoimidazol-5-yl)-[(2R,6S)-6,11,11-trimethyl-1,2,5,6-tetrahydro-4H-2,6-methano-benzo[d]azocin-3-yl]-methanone] | 56 nM
13 | CC1(C)[C@H]2Cc3c(O)cccc3[C@]1(C)CCN2C(=O)c1ccc(C(=O)N2CCOCC2)cc1 [Example 134, [(2R,6S)-10-Hydroxy-6,11,11-trimethyl-1,2,5,6-tetrahydro-4H-2,6-methano-benzo[d]azocin-3-yl]-[4-(morpholine-4-carbonyl)-phenyl]-methanone] | 1230 nM
14 | CC1(C)C2Cc3ccc(O)cc3C1(O)CCN2C(=O)c1ccc2nc[nH]c2c1 (centres unmarked) [Example 56, (3H-Benzoimidazol-5-yl)-(6,8-dihydroxy-11,11-dimethyl-1,2,5,6-tetrahydro-4H-4,6-methano-benzo[d]azocin-3-vl)-methanone] | 725 nM
15 | CC[C@]12CCN(C(=O)c3ccc4nc[nH]c4c3)[C@H](Cc3ccc(O)cc31)[C@@H]2C (racemic) [Example 87, (3H-Benzoimidazol-5-yl)-(6-ethyl-8-hydroxy-11-methyl-1,2,5,6-tetrahydro-4H-2,6-methano-benzo[d]azocin-3-yl)-methanone] | 622 nM
16 | Cc1nc2ccc(C(=O)N3CC[C@@]4(C)c5cccc(O)c5C[C@@H]3C4(C)C)cc2[nH]1 [Example 17, [(2R,6S)-10-Hydroxy-6,11,11-trimethyl-1,2,5,6-tetrahydro-4H-2,6-methano-benzo[d]azocin-3-yl]-(2-methyl-3H-benzoimidazol-5-yl)-methanone] | 1380 nM
17 | CC1(C)[C@H]2Cc3ccc(S(N)(=O)=O)cc3[C@]1(C)CCN2C(=O)c1ccc2nc[nH]c2c1 [Example 203, (2R,6S)-3-(3H-Benzoimidazole-5-carbonyl)-6,11,11-trimethyl-1,2,3,4,5,6-hexahydro-2,6-methano-benzo[d]azocine-8-sulfonic acid amide] | 125 nM
18 | CC(O)c1cccc(C(=O)N2CC[C@@]3(C)c4ccccc4C[C@@H]2C3(C)C)c1 (stereo partly drawn) [Example 314, [3-(1-Hydroxy-ethyl)-phenyl]-[(2R,6S)-6,11,11-trimethyl-1,2,5,6-tetrahydro-4H-2,6-methano-benzo[d]azocin-3-yl]-methanone] | 162 nM
19 | CC1(C)[C@H]2Cc3ccccc3[C@]1(C)CCN2C(=O)c1cc(Cl)c(N)c(Cl)c1 [Example 283, (4-Amino-3,5-dichloro-phenyl)-[(2R,6S)-6,11,11-trimethyl-1,2,5,6-tetrahydro-4H-2,6-methano-benzo[d]azocin-3-yl]-methanone] | 55 nM
20 | CCCNC(=O)c1ccc(C(=O)N2CC[C@@]3(C)c4cccc(O)c4C[C@@H]2C3(C)C)cc1 [Example 171, 4-[(2R,6S)-10-Hydroxy-6,11,11-trimethyl-1,2,5,6-tetrahydro-4H-2,6-methano-benzo[d]azocine-3-carbonyl]-N-propyl-benzamide] | 1650 nM
21 | Cc1cc2c(cc1O)[C@@]1(C)CCN(C(=O)c3ccc4nc[nH]c4c3)[C@@H](C2)C1(C)C (stereo in doubt) [Example 66, (3H-Benzoimidazol-5-yl)-[(2S,6R)-8-hydroxy-6,9,11,11-tetramethyl-1,2,5,6-tetrahydro-4H-2,6-methano-benzo[d]azocin-3-yl]-methanone] | 822 nM
22 | CC1(C)[C@H]2Cc3cc4nc(-c5ccnnc5)[nH]c4cc3[C@]1(C)CCN2C(=O)c1ccc2nc[nH]c2c1 [Example 276, (3H-Benzoimidazol-5-yl)-[(6R,10S)-5,6,7,8,9,10-hexahydro-10,12,12-trimethyl-2-pyridazin-4-yl-6,10-methano-imidazo[5,4-i][3]benzazocin-7-yl]-methanone] | 34 nM
23 | CC(=O)c1ccc2c(c1)C[C@H]1N(C(=O)c3ccc4nc[nH]c4c3)CC[C@]2(C)C1(C)C [Example 205, 1-[(2R,6S)-3-(3H-Benzoimidazole-5-carbonyl)-6,11,11-trimethyl-1,2,3,4,5,6-hexahydro-2,6-methano-benzo[d]azocin-9-ayl]-ethanone] | 38 nM
24 | CC(O)c1ccc2c(c1)C[C@H]1N(C(=O)c3ccc4nc[nH]c4c3)CC[C@]2(C)C1(C)C (stereo partly drawn) [Example 209, (3H-Benzoimidazol-5-yl)-[(2R,6S)-9-(1-hydroxy-ethyl)-6,11,11-trimethyl-1,2,5,6-tetrahydro-4H-2,6-methano-benzo[d]azocin-3-yl]-methanone] | 40 nM
25 | CC1(C)[C@H]2Cc3c(O)cccc3[C@]1(C)CCN2C(=O)c1ccc(C(N)=O)cc1 [Example 3, 4-[(2R,6S)-10-Hydroxy-6,11,11-trimethyl-1,2,5,6-tetrahydro-4H-2,6-methano-benzo[d]azocine-3-carbonyl]benzamide] | 85 nM
26 | C[C@@H]1[C@H]2Cc3cc(C#N)ccc3[C@]1(C)CCN2C(=O)c1ccc2nc[nH]c2c1 [Example 227, (2R,6R,11S)-3-(3H-Benzoimidazole-5-carbonyl)-6,11-dimethyl-1,2,3,4,5,6-hexahydro-2,6-methano-benzo[d]azocine-9-carbonitrile] | 25 nM
27 | Cc1nnc(-c2ccc3c(c2)[C@]2(C)CCN(C(=O)c4ccc5nc[nH]c5c4)[C@H](C3)[C@H]2C)n1C [Example 336, (3H-Benzoimidazol-5-yl)-[(2R,6R,11S)-8-(4,5-dimethyl-4H-[1,2,4]triazol-3-yl)-6,11-dimethyl-1,2,5,6-tetrahydro-4H-2,6-methano-benzo[d]azocin-3-yl]-methanone] | 198 nM
28 | N#CC12CCN(C(=O)c3ccc4nc[nH]c4c3)C(Cc3ccc(O)cc31)C2 (centres unmarked) [Example 226, 3-(3H-Benzoimidazole-5-carbonyl)-8-hydroxy-2,3,4,5-tetrahydro-1H-2,6-methano-benzo[d]azocine-6-carbonitrile] | 1410 nM
29 | CC1(C)[C@H]2Cc3c(O)cccc3[C@]1(C)CCN2C(=O)c1ccc(CN2CCCCC2)cc1 [Example 22, [(2R,6S)-10-Hydroxy-6,11,11-trimethyl-1,2,5,6-tetrahydro-4H-2,6-methano-benzo[d]azocin-3-yl]-(4-piperidin-1-ylmethyl-phenyl)-methanone] | 5040 nM
